Data published in ChEMBL document CHEMBL4219256, “Design, Synthesis, and Biological Evaluation of 4-Quinoline Carboxylic Acids as Inhibitors of Dihydroorotate Dehydrogenase” (J Med Chem, 2018).

Assays:
[1] = test system: MIA PaCa-2; experiment: Antiproliferative activity against human MIAPaCa2 cells after 72 hrs by MTT assay; assay type: functional, cell-based
[2] = test system: HCT-116; experiment: Antiproliferative activity against human HCT116 cells over-expressing DHODH after 72 hrs by MTT assay; assay type: functional, cell-based
[3] = biological target: Dihydroorotate dehydrogenase (quinone), mitochondrial (Homo sapiens, UniProt Q02127)
Dihydroorotate dehydrogenase (quinone), mitochondrial, sequence (Q02127 whole entry): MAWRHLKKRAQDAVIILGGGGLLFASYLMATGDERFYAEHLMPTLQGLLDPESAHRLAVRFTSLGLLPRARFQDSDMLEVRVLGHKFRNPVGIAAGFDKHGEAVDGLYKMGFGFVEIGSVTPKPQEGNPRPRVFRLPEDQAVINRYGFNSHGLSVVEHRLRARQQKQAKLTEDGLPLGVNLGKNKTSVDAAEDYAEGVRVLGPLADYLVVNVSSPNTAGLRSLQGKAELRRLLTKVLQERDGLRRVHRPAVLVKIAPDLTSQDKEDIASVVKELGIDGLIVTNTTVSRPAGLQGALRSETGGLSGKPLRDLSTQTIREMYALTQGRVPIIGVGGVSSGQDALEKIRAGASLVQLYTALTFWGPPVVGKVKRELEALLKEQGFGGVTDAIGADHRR
Description: Inhibition of DHODH (unknown origin) expressed in Escherichia coli Rosetta2(DE3) assessed as reduction of DCIP using dihydroorotate as substrate preincubated for 30 mins followed by substrate addition in presence of CoQ10 measured after 1 hr

[4] = Thermodynamic aqueous solubility of the compound in pH 7.4 phosphate buffer at 6.4 mg/ml after overnight incubation by CLND method; assay type: physicochemical
[5] = Solubility of the compound in water at pH 7.4; assay type: physicochemical
[6] = test system: Homo sapiens; experiment: Volume of distribution at steady state in human at 8 mg/m2 administered as 10 mins iv infusion; assay type: ADME, organism-based; settings: in vivo
[7] = test system: HL-60; experiment: Antiproliferative activity against human HL60 cells after 72 hrs by MTT assay
[8] = Thermodynamic aqueous solubility of the compound in pH 7.4 phosphate buffer at 6.2 mg/ml after overnight incubation by CLND method; assay type: physicochemical
[9] = Cmax in human at 8 mg/m2 administered as 10 mins iv infusion; assay type: ADME, organism-based; set-up: route intravenous; settings: in vivo
[10] = test system: HCT-116; experiment: Growth inhibition of human HCT116 cells over-expressing DHODH at 2 times antiproliferative IC50 after 72 hrs in presence of 5 uM uridine by MTT assay; assay type: functional
[11] = test system: Homo sapiens; experiment: Clearance in human at 16 mg/m2 administered as 10 mins iv infusion; assay type: ADME, organism-based; settings: in vivo
[12] = Cmax in human at 16 mg/m2 administered as 10 mins iv infusion; assay type: ADME, organism-based; set-up: route intravenous; settings: in vivo
[13] = AUC (0 to last) in human at 36 mg/m2, iv; assay type: ADME, organism-based; set-up: route intravenous, time 0 - last; settings: in vivo
[14] = AUC (0 to last) in human at 8 mg/m2 administered as 10 mins iv infusion; assay type: ADME, organism-based; set-up: time 0 - last, route intravenous; settings: in vivo
[15] = Elimination half life in human at 16 mg/m2 administered as 10 mins iv infusion; assay type: ADME, organism-based; settings: in vivo, read-out: beta t1/2 (converted)
[16] = test system: Homo sapiens; experiment: Volume of distribution at steady state in human at 16 mg/m2 administered as 10 mins iv infusion; assay type: ADME, organism-based; settings: in vivo
[17] = Elimination half life in human at 8 mg/m2 administered as 10 mins iv infusion; assay type: ADME, organism-based; settings: in vivo, read-out: beta t1/2 (converted)
[18] = test system: Homo sapiens; experiment: Clearance in human at 8 mg/m2 administered as 10 mins iv infusion; assay type: ADME, organism-based; settings: in vivo
[19] = AUC (0 to last) in human at 16 mg/m2 administered as 10 mins iv infusion; assay type: ADME, organism-based; set-up: route intravenous, time 0 - last; settings: in vivo
[20] = test system: Homo sapiens; experiment: Volume of distribution at steady state in human at 36 mg/m2, iv; assay type: ADME, organism-based; settings: in vivo
[21] = Elimination half life in human at 36 mg/m2, iv; assay type: ADME, organism-based; settings: in vivo, read-out: beta t1/2 (converted)
[22] = Elimination half life in CD-1 mouse at 20 mg/kg, po; assay type: ADME, organism-based; settings: in vivo, read-out: beta t1/2 (converted)
[23] = AUC (0 to infinity) in CD-1 mouse at 10 mg/kg, iv; assay type: ADME, organism-based; set-up: dose 10 mg/kg, time infinity, route intravenous; settings: in vivo
[24] = AUC (0 to last) in CD-1 mouse at 10 mg/kg, iv; assay type: ADME, organism-based; set-up: dose 10 mg/kg, time 0 - last, route intravenous; settings: in vivo
[25] = test system: Mus musculus; experiment: Oral bioavailability in CD-1 mouse at 20 mg/kg; assay type: ADME, organism-based; settings: in vivo
[26] = Initial plasma concentration in CD-1 mouse at 10 mg/kg, iv; assay type: ADME, organism-based
[27] = AUC (0 to infinity) in CD-1 mouse at 20 mg/kg, po; assay type: ADME, organism-based; set-up: dose 20 mg/kg, time infinity, route oral; settings: in vivo
[28] = Apparent clearance in CD-1 mouse at 20 mg/kg, po; assay type: ADME, organism-based; settings: in vivo
[29] = Apparent volume of distribution during terminal phase in CD-1 mouse at 20 mg/kg, po; assay type: ADME, organism-based; settings: in vivo, read-out: Vz/F
[30] = Clearance in CD-1 mouse at 10 mg/kg, iv; assay type: ADME, organism-based; settings: in vivo
[31] = Thermodynamic aqueous solubility of the compound in pH 7.4 phosphate buffer at 4.9 mg/ml after overnight incubation by CLND method; assay type: physicochemical
[32] = Thermodynamic aqueous solubility of the compound in pH 7.4 phosphate buffer at 5.8 mg/ml after overnight incubation by CLND method; assay type: physicochemical
[33] = Cmax in CD-1 mouse at 20 mg/kg, po; assay type: ADME, organism-based; set-up: dose 20 mg/kg, route oral; settings: in vivo
[34] = Tmax in CD-1 mouse at 20 mg/kg, po; assay type: ADME, organism-based; settings: in vivo
[35] = AUC (0 to last) in CD-1 mouse at 20 mg/kg, po; assay type: ADME, organism-based; set-up: dose 20 mg/kg, route oral, time 0 - last; settings: in vivo
[36] = Volume of distribution at steady state in CD-1 mouse at 10 mg/kg, iv; assay type: ADME, organism-based; settings: in vivo, read-out: Vdss
[37] = Elimination half life in CD-1 mouse at 10 mg/kg, iv; assay type: ADME, organism-based; settings: in vivo, read-out: beta t1/2 (converted)

Cc1c(-c2ccc(-c3ccccc3)cc2)nc2ncccc2c1C(=O)O
IC50 [1]: > 100 µM | IC50 [2]: > 100 µM | IC50 [3]: 1.22 µM

Cc1c(-c2ccc(-c3cccnc3Cl)cc2)nc2cnccc2c1C(=O)O
IC50 [1]: > 100 µM | IC50 [2]: > 100 µM | IC50 [3]: 0.259 µM

Cc1c(-c2ccc(-c3ccccc3F)cc2)nc2ccc(F)cc2c1C(=O)O [BREQUINAR]
Therm_solubility [4]: 1048.6 µM | solubility [5]: < 100 µg/mL | Vdss [6]: 8.2 L/m2 | IC50 [7]: 0.544 µM | Therm_solubility [8]: 1085.2 µM | Cmax [9]: 1800 ng/mL | growth inhibition (GI) [10]: <50% | IC50 [1]: 1.69 µM | CL [11]: 4.9 L/hr/m2 | Cmax [12]: 2700 ng/mL | IC50 [2]: 0.679 µM | AUC(0-t) [13]: 20700 ng·h/mL | AUC(0-t) at 10 min [14]: 3200 ng·h/mL | half-life [15]: 3.1 h | Vdss [16]: 11.6 L/m2 | half-life [17]: 2.9 h | CL [18]: 3.2 L/hr/m2 | AUC(0-t) at 10 min [19]: 3800 ng·h/mL | Vdss [20]: 7.48 L/m2 | half-life [21]: 4.3 h

Cc1ccc(-c2ccc(-c3nc4ccc(Cl)cc4c(C(=O)O)c3C)cc2)c(Cl)n1
IC50 [1]: 7.56 µM | IC50 [2]: 2.71 µM

Cc1c(-c2ccc(-c3cccnc3Cl)cc2)nc2ccc(Cl)cc2c1C(=O)O
IC50 [1]: 4.73 µM | IC50 [2]: 4.36 µM

Cc1c(-c2ccc(-c3ccccc3)cc2)nc2cnc(C(F)(F)F)cc2c1C(=O)O
IC50 [7]: 2.67 µM | IC50 [1]: 2.18 µM | IC50 [2]: 0.88 µM | IC50 [3]: 0.0212 µM

COC(=O)c1cc(-c2ccc(C3CCCCC3)cc2)nc2ccccc12
IC50 [1]: 37.1 µM | IC50 [2]: 42.6 µM | IC50 [3]: > 200 µM

O=C(O)c1cc(-c2ccc(-c3cccnc3Cl)cc2)nc2ccccc12
IC50 [7]: 7.12 µM | IC50 [1]: 7.13 µM

CC(C)c1ccc(-c2cc(C(=O)O)c3ccccc3n2)cc1
IC50 [1]: 24.2 µM | IC50 [2]: 19.1 µM

COc1ccccc1-c1ccc(-c2cc(C(=O)O)c3ccccc3n2)cc1
IC50 [1]: 7.45 µM | IC50 [2]: 2.85 µM

COC(=O)c1cc(-c2ccc(-c3cccnc3)cc2)nc2ccccc12
IC50 [1]: 6.43 µM | IC50 [2]: 6.15 µM | IC50 [3]: > 200 µM

Cc1ccc(-c2ccc(-c3nc4ccccc4c(C(=O)O)c3C)cc2)c(F)n1
IC50 [1]: 31.6 µM | IC50 [2]: 23.9 µM

Cc1ccc(-c2ccc(-c3nc4cnccc4c(C(=O)O)c3C)cc2)c(Cl)n1
IC50 [1]: > 100 µM | IC50 [2]: > 100 µM | IC50 [3]: 5.26 µM

O=C(O)c1cc(-c2ccc(N3CCCCC3)cc2)nc2ccccc12
IC50 [1]: 16.7 µM | IC50 [2]: 7.23 µM

O=C(O)c1cc(-c2ccc(-c3ccccc3)cc2)nc2ccccc12
IC50 [7]: 3.51 µM | IC50 [1]: 2.16 µM | IC50 [2]: 0.344 µM

O=C(O)c1cc(-c2ccc(-c3ccc(F)nc3)cc2)nc2ccccc12
IC50 [2]: 16.8 µM

O=C(O)c1cc(-c2ccc(-c3cccnc3C(F)(F)F)cc2)nc2ccccc12
IC50 [1]: 8.84 µM | IC50 [2]: 4.63 µM

Cc1c(-c2ccc(-c3cccnc3Cl)cc2)nc2cnc(C(F)(F)F)cc2c1C(=O)O
IC50 [1]: 21.5 µM | IC50 [2]: 25.7 µM | IC50 [3]: 0.201 µM

Cc1ccc(-c2ccc(-c3nc4ccccc4c(C(=O)O)c3C)cc2)c(Cl)n1
IC50 [1]: 7.7 µM | IC50 [2]: 15.5 µM

Cc1c(-c2ccc(-c3cccnc3Cl)cc2)nc2ccc(F)cc2c1C(=O)O
half-life [22]: 2.78 h | AUC(0-inf) [23]: 32300 ng·h/mL | IC50 [7]: 9.28 µM | AUC(0-t) [24]: 32300 ng·h/mL | F [25]: 56% | C0 [26]: 45400 ng/mL | AUC(0-inf) [27]: 36000 ng·h/mL | IC50 [1]: 7.18 µM | CL/F [28]: 9.25 mL/min/kg | Vd/F [29]: 2.23 L/kg | clearance [30]: 5.15 mL/min/kg | Therm_solubility [31]: 982.1 µM | Therm_solubility [32]: 1000.1 µM | Cmax [33]: 5310 ng/mL | IC50 [2]: 3.02 µM | Tmax [34]: 0.25 h | AUC(0-t) [35]: 35900 ng·h/mL | Vd [36]: 0.496 L/kg | half-life [37]: 2.73 h

Cc1ccc(-c2ccc(-c3nc4ccc(F)cc4c(C(=O)O)c3C)cc2)c(Cl)n1
IC50 [7]: 4.81 µM | IC50 [1]: 6.57 µM | IC50 [2]: 1.98 µM

Cc1c(-c2ccc(-c3ccccc3)cc2)nc2ccncc2c1C(=O)O
IC50 [1]: 28.1 µM | IC50 [2]: 26.7 µM | IC50 [3]: 2.79 µM

Cc1c(-c2ccc(-c3ccccc3F)cc2)nc2cnc(C(F)(F)F)cc2c1C(=O)O
IC50 [7]: 0.401 µM | IC50 [1]: 0.454 µM | IC50 [2]: 0.333 µM | IC50 [3]: 0.0118 µM

COC(=O)c1cc(-c2ccc(-c3cnccc3C(F)(F)F)cc2)nc2ccccc12
IC50 [3]: > 50 µM

O=C(O)c1cc(-c2ccc(-c3ncccn3)cc2)nc2ccccc12
IC50 [1]: > 50 µM | IC50 [2]: > 50 µM | IC50 [3]: > 200 µM
